Assay: Dynamic viscosity of crude/dimethyl sulfide blends (rheometer, closed cup)
Format: physicochemical
Protocol: The quality of dimethyl sulfide as an oil recovery agent based on the crude oil viscosity lowering properties of dimethyl sulfide was evaluated. Three crude oils having widely disparate viscosity characteristics—an African Waxy crude, a Middle Eastern asphaltic crude, and a Canadian asphaltic crude—were blended with dimethyl sulfide.
A control sample of each crude was prepared containing no dimethyl sulfide, and samples of each crude were prepared and blended with dimethyl sulfide to prepare crude samples containing increasing concentrations of dimethyl sulfide. Each sample of each of the crudes was heated to 60° C. to dissolve any waxes therein and to permit weighing of a homogeneous liquid, weighed, allowed to cool overnight, then blended with a selected quantity of dimethyl sulfide. The samples of the crude/dimethyl sulfide blend were then heated to 60° C. and mixed to ensure homogeneous blending of the dimethyl sulfide in the samples. Absolute (dynamic) viscosity measurements of each of the samples were taken using a rheometer and a closed cup sensor assembly. Viscosity measurements of each of the samples of the West African waxy crude and the Middle Eastern asphaltic crude were taken at 20° C., 40° C., 60° C., 80° C., and then again at 20° C. after cooling from 80° C., where the second measurement at 20° C. is taken to measure the viscosity without the presence of waxes since wax formation occurs slowly enough to permit viscosity measurement at 20° C. without the presence of wax. Viscosity measurements of each of the samples of the Canadian asphaltic crude were taken at 5° C., 10° C., 20° C., 40° C., 60° C., 80° C.

- Viscosity (DMS 1.43 wt. %, 20° C.): 212525 mPa s
- Viscosity (DMS 1.43 wt. %, 40° C.): 14721 mPa s
- Viscosity (DMS 1.43 wt. %, 60° C.): 2209 mPa s
- Viscosity (DMS 1.43 wt. %, 80° C.): 538 mPa s
- Viscosity (DMS 2.07 wt. %, 20° C.): 134880 mPa s
- Viscosity (DMS 2.07 wt. %, 40° C.): 10523 mPa s
- Viscosity (DMS 2.07 wt. %, 60° C.): 1747 mPa s
- Viscosity (DMS 2.07 wt. %, 80° C.): 427 mPa s
- Viscosity (DMS 4.87 wt. %, 20° C.): 28720 mPa s
- Viscosity (DMS 4.87 wt. %, 40° C.): 3235 mPa s
- Viscosity (DMS 4.87 wt. %, 60° C.): 985 mPa s
- Viscosity (DMS 4.87 wt. %, 80° C.): 328 mPa s
Structure (SMILES): CSC [Dimethyl Sulfide, dimethyl sulfide]

From US20140000884A1, “PETROLEUM RECOVERY PROCESS AND SYSTEM” (Shell Oil Company, priority 2012, published 2014)
